# Reference: article PMC7988117, “OMN6 a novel bioengineered peptide for the treatment of multidrug resistant Gram negative bacteria” (Scientific Reports, 2021)
# Bridge positions count the residues as written; N and C are the ends. Peptide text beside a SMILES is read from it.
# System: mouse red blood cells
# Experiment: Hemolysis assay
# Assay type: cell-based
# Conditions: 10% mouse erythrocytes, 6.25–200 µM (27–868 µg/mL), 1 h, 37 °C, absorbance 400 nm
# Protocol: Red Blood Cells (RBCs) suspension was prepared from whole blood extracted from the heart of Hsd:ICR (CD-1) mice (Envigo, Huntingdon, Cambridgeshire, UK). The study was carried out in accordance with relevant guidelines and regulations, and was approved by the Hebrew University Ethics Committee for the Care and Use of Laboratory Animals under approval number NS-15-14575-3. Briefly, blood was collected in a 24 U/mL heparin tube to prevent coagulation. Then cells were washed with Phosphate Buffered Saline (PBS; Biological Industries) and centrifuged at 200g for 10 min at 20 °C. This operation was repeated three times, then remaining RBCs were resuspended in saline or PBS to form a 10% RBC solution. Increasing concentrations of OMN6 or 1% Tween were added to RBCs. After an incubation of 1 h at 37 °C with shaking at 100 rpm, experiment tubes were centrifuged for 10 min at 200g at room temperature. 100 µL supernatant was extracted from each tube and tested according to the Hemoglobin Assay Kit (Sigma-Aldrich). Hemoglobin levels were determined via absorbance at 400 nm.
compound,measurement,value
CC[C@H](C)[C@@H]1NC(=O)CNC(=O)[C@H](CC(=O)O)NC(=O)[C@H](CCCNC(=N)N)NC(=O)[C@H]([C@@H](C)CC)NC(=O)[C@H](CC(N)=O)NC(=O)[C@H](CCC(N)=O)NC(=O)CNC(=O)[C@H](C(C)C)NC(=O)[C@H](CCCCN)NC(=O)[C@H](CCC(=O)O)NC(=O)[C@H]([C@@H](C)CC)NC(=O)[C@H](CCCCN)NC(=O)[C@H](CCCCN)NC(=O)[C@H](Cc2ccccc2)NC(=O)[C@H](CC(C)C)NC(=O)[C@H](CCCCN)NC(=O)[C@H](Cc2c[nH]c3ccccc23)NC(=O)[C@H](CCCCN)NC(=O)[C@@H](NC(=O)[C@@H](N)CCSC)CSSC[C@@H](C(N)=O)NC(=O)[C@H](CCCCN)NC(=O)[C@H](C)NC(=O)[C@H]([C@@H](C)CC)NC(=O)[C@H](CCC(N)=O)NC(=O)[C@H]([C@@H](C)O)NC(=O)[C@H](C)NC(=O)[C@H](CCC(N)=O)NC(=O)CNC(=O)[C@H](C(C)C)NC(=O)[C@H](C(C)C)NC(=O)[C@H](C)NC(=O)[C@H](C(C)C)NC(=O)[C@H](C)NC(=O)[C@@H]2CCCN2C(=O)CNC(=O)[C@H](C)NC(=O)[C@H](CCCCN)NC(=O)[C@H]([C@@H](C)CC)NC1=O [OMN6] (H-MCKWKLFKKIEKVGQNIRDGIIKAGPAVAVVGQATQIAKC-NH2; disulfide 2-40; N-terminus assumed),Hemolysis expressed as free Hemoglobin,no hemolysis
